Assays:
rat [1] = conditions: Subchronic oral toxicity in rodents, sprague dawley, Feed, dose end: 90 day, group: systemic, systemic / in life observation / body weight / body weight + systemic / in life observation / body weight / body weight gain + systemic / in…
rat [2] = conditions: Combined chronic toxicity/carcinogenicity, other, Oral, Feed, dose end: 24 month, group: systemic
mouse [3] = conditions: Carcinogenicity; cd1; Oral; Feed; dose end: 80 week; group: systemic; systemic / pathology microscopic / liver / adenoma + systemic / in life observation / body weight / body weight gain + systemic / in life …
dog [4] = conditions: Subchronic oral toxicity in nonrodent, beagle, Feed, dose end: 90 day, group: systemic, systemic / hematology / erythrocyte (rbc) count differential / erythrocyte (rbc) + systemic / hematology / hematocrit (hct) / hematocrit (…
dog [5] = conditions: Chronic toxicity; beagle; Oral; Feed; dose end: 52 week; group: systemic; systemic / organ weight / liver / relative to body weight + systemic / pathology microscopic / liver / vacuolization + systemic / pathology …
rat [6] = conditions: Prenatal developmental toxicity study, sprague dawley, Oral, Gavage/Intubation, dose end: 17 GD
mouse [7] = conditions: Carcinogenicity, b6c3f1, Oral, Feed, dose end: 24 month, group: systemic
mouse [8] = conditions: Subchronic oral toxicity in rodents, b6c3f1, Feed, dose end: 90 day, group: systemic, systemic / clinical chemistry / glucose / glucose + systemic / in life observation / body weight / body weight gain + systemic / clinical …
rat [9] = conditions: Subchronic oral toxicity in rodents, fischer, Feed, dose end: 90 day, group: systemic
mouse [10] = conditions: Chronic toxicity, b6c3f1, Oral, Feed, dose end: 1 year, group: systemic
rabbit = conditions: Prenatal developmental toxicity study, dutch, Oral, Gavage/Intubation, dose end: 18 GD, group: maternal
mouse [11] = conditions: Subchronic oral toxicity in rodents, b6c3f1, Feed, dose end: 90 day, group: systemic
rat [12] = conditions: Multigenerational reproductive toxicity study, fischer, Oral, Feed, dose end: 2 generation
mouse [13] = conditions: Carcinogenicity, b6c3f1, Oral, Feed, dose end: 2 year, group: systemic
rat [14] = conditions: Combined chronic toxicity/carcinogenicity, fischer, Oral, Feed, dose end: 2 year, group: systemic
dog [15] = conditions: Chronic toxicity; beagle; Oral; Capsule; dose end: 52 week; group: systemic; systemic / clinical chemistry / thyroxine (t4) / thyroxine (t4), total
[16] = systemic / in life observation / body weight / body weight gain
[17] = systemic / in life observation / body weight / body weight gain + systemic / in life observation / body weight / body weight + systemic / …
[18] = group: developmental, developmental / developmental malformation / bone / incomplete ossification + systemic / in life observation / body weight / fetal weight
[19] = group: developmental, developmental / developmental malformation / bone / incomplete ossification + systemic / in life observation / body weight / fetal weight + …
[20] = group: maternal, reproductive / reproductive performance / preimplantation loss / preimplantation loss + systemic / in life observation / body weight / body …
[21] = systemic / in life observation / body weight / body weight gain + systemic / organ weight / uterus / absolute + systemic / organ weight / …
[22] = systemic / organ weight / uterus / absolute
[23] = systemic / organ weight / kidney / absolute + systemic / organ weight / kidney / relative to body weight + systemic / pathology microscopic…
[24] = systemic / urinalysis / sediment microscopic / crystalluria + systemic / urinalysis / ph / ph
[25] = systemic / pathology microscopic / kidney / pyelonephritis + systemic / pathology microscopic / urinary bladder / inflammation + systemic / …
[26] = systemic / in life observation / food consumption / food consumption + reproductive / offspring survival early / litter size / litter size…
[27] = systemic / in life observation / food consumption / food consumption + systemic / in life observation / body weight / body weight gain
[28] = systemic / in life observation / body weight / body weight + systemic / organ weight / spleen / absolute
[29] = group: offspring, systemic / in life observation / body weight / offspring (pup) weight
[30] = group: parental, systemic / organ weight / kidney / absolute + systemic / organ weight / kidney / relative to body weight + systemic / pathology microscopic…
[31] = systemic / hematology / erythrocyte (rbc) count differential / erythrocyte (rbc) + systemic / hematology / hematocrit (hct) / hematocrit (…
[32] = systemic / pathology microscopic / mammary gland / fibroadenoma

SMILES: COC(=O)c1ccccc1S(=O)(=O)NC(=O)Nc1nc(OC(F)F)cc(OC(F)F)n1 [Primisulfuron-methyl]
- LEL (rat [1]): 150 mg/kg/day
- LOAEL (rat [1]): 150 mg/kg/day
- NEL (rat [1]): 15 mg/kg/day
- NOAEL (rat [1]): 15 mg/kg/day
- LEL (rat [2]; [16]): 127 mg/kg/day
- LOAEL (rat [2]; [16]): 127 mg/kg/day
- NEL (rat [2]; [17]): 12.4 mg/kg/day
- NOAEL (rat [2]; [17]): 12.4 mg/kg/day
- LEL (mouse [3]): 408 mg/kg/day
- LOAEL (mouse [3]): 408 mg/kg/day
- NEL (mouse [3]): 40.2 mg/kg/day
- NOAEL (mouse [3]): 40.2 mg/kg/day
- LEL (dog [4]): 250 mg/kg/day
- LOAEL (dog [4]): 250 mg/kg/day
- NEL (dog [4]): 25 mg/kg/day
- NOAEL (dog [4]): 25 mg/kg/day
- LEL (dog [5]): 125 mg/kg/day
- LOAEL (dog [5]): 125 mg/kg/day
- NEL (dog [5]): 25 mg/kg/day
- NOAEL (dog [5]): 25 mg/kg/day

SMILES: CCCN(CCC)c1c([N+](=O)[O-])cc(S(N)(=O)=O)cc1[N+](=O)[O-] [Oryzalin]
- LEL (rat [6]; [18]): 225 mg/kg/day
- LOAEL (rat [6]; [18]): 225 mg/kg/day
- NEL (rat [6]; [19]): 50 mg/kg/day
- NOAEL (rat [6]; [19]): 50 mg/kg/day
- LEL (rat [6]; [20]): 225 mg/kg/day
- LOAEL (rat [6]; [20]): 225 mg/kg/day
- NEL (rat [6]; [20]): 50 mg/kg/day
- NOAEL (rat [6]; [20]): 50 mg/kg/day
- LOAEL (mouse [7]; [16]): 521 mg/kg/day
- NEL (mouse [7]; [21]): 71 mg/kg/day
- NOAEL (mouse [7]; [21]): 193 mg/kg/day
- LEL (mouse [7]; [22]): 193 mg/kg/day
- LEL (mouse [8]): 1430 mg/kg/day
- LOAEL (mouse [8]): > 1430 mg/kg/day
- NEL (mouse [8]): < 1430 mg/kg/day
- NOAEL (mouse [8]): ≥ 1430 mg/kg/day
- LOAEL (rat [9]; [23]): 45.9 mg/kg/day
- NOAEL (rat [9]; [23]): 4.56 mg/kg/day
- LEL (rat [9]; [24]): 4.56 mg/kg/day
- NEL (rat [9]; [24]): < 4.56 mg/kg/day
- LEL (mouse [10]; systemic / clinical chemistry / creatinine / creatinine + systemic / clinical chemistry / urea nitrogen / urea nitrogen): 193 mg/kg/day
- NEL (mouse [10]; systemic / clinical chemistry / creatinine / creatinine + systemic / clinical chemistry / urea nitrogen / urea nitrogen + systemic / …): 71 mg/kg/day
- LOAEL (mouse [10]; [25]): > 521 mg/kg/day
- NOAEL (mouse [10]; [25]): ≥ 521 mg/kg/day
- LEL (rabbit; [26]): 55 mg/kg/day
- LOAEL (rabbit; [26]): 55 mg/kg/day
- NEL (rabbit; [27]): 25 mg/kg/day
- NOAEL (rabbit; [27]): 25 mg/kg/day
- LOAEL (mouse [11]; systemic / in life observation / body weight / body weight): 1140 mg/kg/day
- LEL (mouse [11]; [28]): 1140 mg/kg/day
- NEL (mouse [11]; [28]): 521 mg/kg/day
- NOAEL (mouse [11]; [28]): 521 mg/kg/day
- LEL (rat [12]; [29]): 179 mg/kg/day
- LOAEL (rat [12]; [29]): 179 mg/kg/day
- NEL (rat [12]; [29]): 58.7 mg/kg/day
- NOAEL (rat [12]; [29]): 58.7 mg/kg/day
- LOAEL (rat [12]; [30]): 19.4 mg/kg/day
- NOAEL (rat [12]; [30]): < 19.4 mg/kg/day
- LOAEL (mouse [13]; [16]): 287 mg/kg/day
- NOAEL (mouse [13]; [16]): 104 mg/kg/day
- LEL (mouse [13]; [22]): 112 mg/kg/day
- NEL (mouse [13]; systemic / organ weight / uterus / absolute + systemic / clinical chemistry / glucose / glucose + systemic / hematology / hematocrit (hct…): 42.2 mg/kg/day
- LOAEL (rat [14]; [31]): 42.9 mg/kg/day
- NOAEL (rat [14]; [31]): 13.8 mg/kg/day
- LEL (rat [14]; [32]): 13.8 mg/kg/day
- NEL (rat [14]; [32]): < 13.8 mg/kg/day
- LEL (dog [15]): 1.5 mg/kg/day
- LOAEL (dog [15]): 15 mg/kg/day
- NEL (dog [15]): < 1.5 mg/kg/day
- NOAEL (dog [15]): 5 mg/kg/day

Source: EPA's ToxRefDB 2
